Reference: patent US9428499B2, “Heterocyclyl compounds as MEK inhibitors” (LUPIN LIMITED, priority 2012, dated 2016)

Tested on: ERK phosphorylation
Assay: Analysis of ERK phosphorylation (Alphascreen SureFire Phospho-ERK 1/2)
Assay type: cell-based, human and mouse
Conditions: cells treated for 1 h; human melanoma cells, human and mouse colon cancer cells; read-out: Minimum concentration (nM) required for ≧80% inhibition of pERK
Description: This assay was carried out with human melanoma cells, human and mouse colon cancer cells. Cells were treated for 1 h with various concentrations of test compounds. ERK phosphorylation analysis was performed using the Alphascreen SureFire Phospho-ERK 1/2 Kit (Perkin Elmer), by following the manufacturer's instructions. % inhibition of ERK phosphorylation was determined as: 100−{(RFU test−RFU lysis buffer control)/(RFU vehicle treated control−RFU lysis buffer control)}×100. Percentage inhibition at concentrations of 0.01 nM, 0.03 nM, 0.1-0.9 nM, 1 nM to 3 nM, 4-100 nM, and >100 nM, for the stated examples is setworth here. The percentage inhibition at the above depicted concentrations for the compounds stated are given in the following groups.

**Q.** Which IC80 does the source give for `Cc1c(=O)n(C)c(Nc2ccc(I)cc2F)c2c(=O)n(C3CC3)c(=O)n(-c3cccc(CC(=O)NC4COC4)c3)c12` [Compound 31, 2-(3-(3-cyclopropyl-5-((2-fluoro-4-iodophenyl)amino)-6,8-dimethyl-2,4,7-trioxo-3,4,6,7-tetrahydropyrido[4,3-d]pyrimidin-1(2H)-yl)phenyl)-N-(oxetan-3-yl)acetamide] here?
**A.** The IC80 was 0.01 nM.

**Q.** How did the IC80 turn out when `Cc1c(=O)n(C)c(Nc2ccc(I)cc2F)c2c(=O)n(C3CC3)c(=O)n(-c3cccc(C(O)C(N)=O)c3)c12` (stereo not shown) [Compound 32, 2-(3-(3-cyclopropyl-5-((2-fluoro-4-iodophenyl)amino)-6,8-dimethyl-2,4,7-trioxo-3,4,6,7-tetrahydropyrido[4,3-d]pyrimidin-1(2H)-yl)phenyl)-2-hydroxyacetamide] was run?
**A.** The IC80 was 1 to 3 nM.

**Q.** Which IC80 does the source give for `Cc1c(=O)n(C)c(Nc2ccc(I)cc2F)c2c(=O)n(C3CC3)c(=O)n(-c3cccc(CC(=O)N4CC(O)C4)c3)c12` [Compound 33, 3-cyclopropyl-5-((2-fluoro-4-iodophenyl)amino)-1-(3-(2-(3-hydroxyazetidin-1-yl)-2-oxoethyl)phenyl)-6,8-dimethylpyrido[4,3-d]pyrimidine-2,4,7(1H,3H,6H)-trione] here?
**A.** Its IC80 is 1 to 3 nM.

**Q.** How did the IC80 turn out when `Cc1c(=O)n(C)c(Nc2ccc(I)cc2F)c2c(=O)n(C3CC3)c(=O)n(-c3cccc(CCC(N)=O)c3)c12` [Compound 34, 3-(3-(3-cyclopropyl-5-((2-fluoro-4-iodophenyl)amino)-6,8-dimethyl-2,4,7-trioxo-3,4,6,7-tetrahydropyrido[4,3-d]pyrimidin-1(2H)-yl)phenyl)propanamide] was run?
**A.** Its IC80 is 1 to 3 nM.

**Q.** For `Cc1c(=O)n(C)c(Nc2ccc(I)cc2F)c2c(=O)n(C3CC3)c(=O)n(-c3cccc(OCC(N)=O)c3)c12` [Compound 35, 2-(3-(3-cyclopropyl-5-((2-fluoro-4-iodophenyl)amino)-6,8-dimethyl-2,4,7-trioxo-3,4,6,7-tetrahydropyrido[4,3-d]pyrimidin-1(2H)-yl)phenoxy)acetamide], which IC80 is on record?
**A.** The IC80 was 0.03 nM.

**Q.** How did the IC80 turn out when `CNC(=O)CCc1cccc(-n2c(=O)n(C3CC3)c(=O)c3c(Nc4ccc(I)cc4F)n(C)c(=O)c(C)c32)c1` [Compound 36, 3-(3-(3-cyclopropyl-5-((2-fluoro-4-iodophenyl)amino)-6,8-dimethyl-2,4,7-trioxo-3,4,6,7-tetrahydropyrido[4,3-d]pyrimidin-1(2H)-yl)phenyl)-N-methylpropanamide] was run?
**A.** Its IC80 is 1 to 3 nM.

**Q.** For `Cc1c(=O)n(C)c(Nc2ccc(I)cc2F)c2c(=O)n(C3CC3)c(=O)n(-c3cccc(C(=O)N4CCS(=O)(=O)C4)c3)c12` [Compound 38, 3-cyclopropyl-1-(3-(1,1-dioxidothiazolidine-3-carbonyl)phenyl)-5-((2-fluoro-4-iodophenyl)amino)-6,8-dimethylpyrido[4,3-d]pyrimidine-2,4,7(1H,3H,6H)-trione], which IC80 is on record?
**A.** The IC80 was 0.1 to 0.9 nM.

**Q.** How did the IC80 turn out when `Cc1c(=O)n(C)c(Nc2ccc(I)cc2F)c2c(=O)n(C3CC3)c(=O)n(-c3cccc(C(=O)N4CCS(=O)(=O)CC4)c3)c12` [Compound 39, 3-cyclopropyl-1-(3-(1,1-dioxidothiomorpholine-4-carbonyl)phenyl)-5-((2-fluoro-4-iodophenyl)amino)-6,8-dimethylpyrido[4,3-d]pyrimidine-2,4,7(1H,3H,6H)-trione] was run?
**A.** Its IC80 is 1 to 3 nM.

**Q.** With `Cc1c(=O)n(C)c(Nc2ccc(I)cc2F)c2c(=O)n(C3CC3)c(=O)n(-c3cccc(CCC(=O)NC4CC4)c3)c12` [Compound 40, N-cyclopropyl-3-(3-(3-cyclopropyl-5-((2-fluoro-4-iodophenyl)amino)-6,8-dimethyl-2,4,7-trioxo-3,4,6,7-tetrahydropyrido[4,3-d]pyrimidin-1(2H)-yl)phenyl)propanamide] as the compound, how does the IC80 read?
**A.** Its IC80 is 4 to 100 nM.

**Q.** `Cc1c(=O)n(C)c(Nc2ccc(I)cc2F)c2c(=O)n(C)c(=O)n(-c3cccc(OCC(=O)NC4CC4)c3)c12` [Compound 41, N-cyclopropyl-2-(3-(5-((2-fluoro-4-iodophenyl)amino)-3,6,8-trimethyl-2,4,7-trioxo-3,4,6,7-tetrahydropyrido[4,3-d]pyrimidin-1(2H)-yl)phenoxy)acetamide] was tested. Which IC80 did it give?
**A.** The IC80 was 0.1 to 0.9 nM.

**Q.** With `Cc1c(=O)n(C)c(Nc2ccc(I)cc2F)c2c(=O)n(C)c(=O)n(-c3cccc(CC(N)=O)c3)c12` [Compound 42, 2-(3-(5-((2-fluoro-4-iodophenyl)amino)-3,6,8-trimethyl-2,4,7-trioxo-3,4,6,7-tetrahydropyrido[4,3-d]pyrimidin-1(2H)-yl)phenyl)acetamide] as the compound, how does the IC80 read?
**A.** The IC80 was 0.1 to 0.9 nM.

**Q.** With `Cc1c(=O)n(C)c(Nc2ccc(I)cc2F)c2c(=O)n(C)c(=O)n(-c3cccc(C(C)(C)C(N)=O)c3)c12` [Compound 43, 2-(3-(5-((2-fluoro-4-iodophenyl)amino)-3,6,8-trimethyl-2,4,7-trioxo-3,4,6,7-tetra hydropyrido[4,3-d]pyrimidin-1(2H)-yl)phenyl)-2-methylpropanamide] as the compound, how does the IC80 read?
**A.** The IC80 was 0.1 to 0.9 nM.

**Q.** Which IC80 does the source give for `Cc1c(=O)n(C)c(Nc2ccc(I)cc2F)c2c(=O)n(C)c(=O)n(-c3cccc(CC(=O)N(C)C)c3)c12` [Compound 44, 2-(3-(5-((2-fluoro-4-iodophenyl)amino)-3,6,8-trimethyl-2,4,7-trioxo-3,4,6,7-tetra hydropyrido[4,3-d]pyrimidin-1(2H)-yl)phenyl)-N,N-dimethylacetamide] here?
**A.** Its IC80 is 0.1 to 0.9 nM.

**Q.** With `Cc1c(=O)n(C)c(Nc2ccc(I)cc2F)c2c(=O)n(C)c(=O)n(-c3cccc(C(F)(F)C(N)=O)c3)c12` [Compound 45, 2,2-difluoro-2-(3-(5-((2-fluoro-4-iodophenyl)amino)-3,6,8-trimethyl-2,4,7-trioxo-3,4,6,7-tetrahydropyrido[4,3-d]pyrimidin-1(2H)-yl)phenyl)acetamide] as the compound, how does the IC80 read?
**A.** The IC80 was 1 to 3 nM.

**Q.** Which IC80 does the source give for `Cc1c(=O)n(C)c(Nc2ccc(I)cc2F)c2c(=O)n(C)c(=O)n(-c3cccc(CC(=O)N4CCC4)c3)c12` [Compound 46, 1-(3-(2-(azetidin-1-yl)-2-oxoethyl)phenyl)-5-((2-fluoro-4-iodophenyl)amino)-3,6,8-trimethylpyrido[4,3-d]pyrimidine-2,4,7(1H,3H,6H)-trione] here?
**A.** The IC80 was 0.01 nM.

**Q.** `Cc1c(=O)n(C)c(Nc2ccc(I)cc2F)c2c(=O)n(C)c(=O)n(-c3cccc(C(O)C(N)=O)c3)c12` (stereo not shown) [Compound 47, 2-(3-(5-((2-fluoro-4-iodophenyl)amino)-3,6,8-trimethyl-2,4,7-trioxo-3,4,6,7-tetrahydropyrido[4,3-d]pyrimidin-1(2H)-yl)phenyl)-2-hydroxyacetamide] was tested. Which IC80 did it give?
**A.** Its IC80 is 0.1 to 0.9 nM.

**Q.** Which IC80 does the source give for `Cc1c(=O)n(C)c(Nc2ccc(I)cc2F)c2c(=O)n(C)c(=O)n(-c3cccc(CC(=O)N4CC(O)C4)c3)c12` [Compound 48, 5-((2-fluoro-4-iodophenyl)amino)-1-(3-(2-(3-hydroxyazetidin-1-yl)-2-oxoethyl)phenyl)-3,6,8-trimethylpyrido[4,3-d]pyrimidine-2,4,7(1H,3H,6H)-trione] here?
**A.** Its IC80 is 1 to 3 nM.

**Q.** With `Cc1c(=O)n(C)c(Nc2ccc(I)cc2F)c2c(=O)n(C)c(=O)n(-c3cccc(C(=O)NC4COC4)c3)c12` [Compound 49, 3-(5-((2-fluoro-4-iodophenyl)amino)-3,6,8-trimethyl-2,4,7-trioxo-3,4,6,7-tetra hydropyrido[4,3-d]pyrimidin-1(2H)-yl)-N-(oxetan-3-yl)benzamide] as the compound, how does the IC80 read?
**A.** The IC80 was 0.01 nM.

**Q.** `Cc1c(=O)n(C)c(Nc2ccc(I)cc2F)c2c(=O)n(C)c(=O)n(-c3cccc(CC(=O)NC4COC4)c3)c12` [Compound 50, 2-(3-(5-((2-fluoro-4-iodophenyl)amino)-3,6,8-trimethyl-2,4,7-trioxo-3,4,6,7-tetrahydropyrido[4,3-d]pyrimidin-1(2H)-yl)phenyl)-N-(oxetan-3-yl)acetamide] was tested. Which IC80 did it give?
**A.** Its IC80 is 4 to 100 nM.

**Q.** `Cc1c(=O)n(C)c(Nc2ccc(I)cc2F)c2c(=O)n(C)c(=O)n(-c3cccc(C(=O)NC4CCOC4)c3)c12` (stereo not shown) [Compound 51, 3-(5-((2-fluoro-4-iodophenyl)amino)-3,6,8-trimethyl-2,4,7-trioxo-3,4,6,7-tetrahydropyrido[4,3-d]pyrimidin-1(2H)-yl)-N-(tetrahydrofuran-3-yl)benzamide] was tested. Which IC80 did it give?
**A.** The IC80 was 0.01 nM.

**Q.** `Cc1c(=O)n(C)c(Nc2ccc(I)cc2F)c2c(=O)n(C)c(=O)n(-c3cccc(C(=O)NC4CCOCC4)c3)c12` [Compound 52, 3-(5-((2-fluoro-4-iodophenyl)amino)-3,6,8-trimethyl-2,4,7-trioxo-3,4,6,7-tetrahydropyrido[4,3-d]pyrimidin-1(2H)-yl)-N-(tetrahydro-2H-pyran-4-yl)benzamide] was tested. Which IC80 did it give?
**A.** Its IC80 is 4 to 100 nM.

**Q.** Which IC80 does the source give for `Cc1c(=O)n(C)c(Nc2ccc(I)cc2F)c2c(=O)n(C)c(=O)n(-c3cccc(C(=O)NC4(CO)CC4)c3)c12` [Compound 53, 3-(5-((2-fluoro-4-iodophenyl)amino)-3,6,8-trimethyl-2,4,7-trioxo-3,4,6,7-tetrahydropyrido[4,3-d]pyrimidin-1(2H)-yl)-N-(1-(hydroxymethyl)cyclopropyl)benzamide] here?
**A.** Its IC80 is 4 to 100 nM.

**Q.** Which IC80 does the source give for `Cc1c(=O)n(C)c(Nc2ccc(I)cc2F)c2c(=O)n(C)c(=O)n(-c3cccc(C(=O)NC4CC4)c3)c12` [Compound 54, N-cyclopropyl-3-(5-((2-fluoro-4-iodophenyl)amino)-3,6,8-trimethyl-2,4,7-trioxo-3,4,6,7-tetrahydropyrido[4,3-d]pyrimidin-1(2H)-yl)benzamide] here?
**A.** Its IC80 is 1 to 3 nM.

**Q.** For `Cc1c(=O)n(C)c(Nc2ccc(I)cc2F)c2c(=O)n(CCO)c(=O)n(-c3cccc(C(=O)NC4CC4)c3)c12` [Compound 55, N-cyclopropyl-3-(5-((2-fluoro-4-iodophenyl)amino)-3-(2-hydroxyethyl)-6,8-dimethyl-2,4,7-trioxo-3,4,6,7-tetrahydropyrido[4,3-d]pyrimidin-1(2H)-yl)benzamide], which IC80 is on record?
**A.** The IC80 was 4 to 100 nM.

**Q.** Which IC80 does the source give for `Cc1c(=O)n(C)c(Nc2ccc(I)cc2F)c2c(=O)n(C)c(=O)n(-c3cccc(C(=O)N4CCC4)c3)c12` [Compound 56, 1-(3-(azetidine-1-carbonyl)phenyl)-5-((2-fluoro-4-iodophenyl)amino)-3,6,8-trimethylpyrido[4,3-d]pyrimidine-2,4,7(1H,3H,6H)-trione] here?
**A.** The IC80 was 1 to 3 nM.
